Each compound was assayed against T1, Polθ polymerase domain (amino acids 1792-2590) (Homo sapiens, UniProt O75417) (assay: Picogreen assay of Polθ polymerase activity). Conditions: 12-point concentration response, 90 minutes incubation at room temperature, 8 nM Polθ in 2×polymerase mixture, read-out: PolQ IC50.
T1 construct: 10×Histidine-SUMO (N, cleaved yes); made in house; host or cells: E. coli
T1 sequence (O75417 1792-2590): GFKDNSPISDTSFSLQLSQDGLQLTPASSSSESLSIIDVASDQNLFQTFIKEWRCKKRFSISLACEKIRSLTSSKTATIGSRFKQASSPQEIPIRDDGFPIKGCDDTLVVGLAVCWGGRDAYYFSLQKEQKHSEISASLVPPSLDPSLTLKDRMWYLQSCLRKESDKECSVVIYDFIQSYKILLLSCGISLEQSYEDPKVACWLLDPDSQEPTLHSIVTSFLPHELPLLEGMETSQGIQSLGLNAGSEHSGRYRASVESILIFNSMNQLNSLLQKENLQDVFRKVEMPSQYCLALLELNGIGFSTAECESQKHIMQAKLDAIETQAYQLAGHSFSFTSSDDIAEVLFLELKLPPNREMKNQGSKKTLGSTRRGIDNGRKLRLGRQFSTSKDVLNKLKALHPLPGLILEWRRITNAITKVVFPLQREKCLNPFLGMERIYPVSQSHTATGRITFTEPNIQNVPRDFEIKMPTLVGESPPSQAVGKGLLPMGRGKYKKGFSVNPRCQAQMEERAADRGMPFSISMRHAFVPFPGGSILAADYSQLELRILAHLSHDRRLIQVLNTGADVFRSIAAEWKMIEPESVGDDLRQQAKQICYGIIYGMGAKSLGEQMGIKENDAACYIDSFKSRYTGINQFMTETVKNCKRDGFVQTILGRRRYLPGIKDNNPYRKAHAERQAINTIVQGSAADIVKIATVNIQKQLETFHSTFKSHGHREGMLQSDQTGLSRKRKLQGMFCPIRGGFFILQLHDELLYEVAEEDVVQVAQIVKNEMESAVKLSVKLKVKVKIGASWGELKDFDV
Format: biochemical
Source text: The DNA sequence of the polQ gene (Genebank ID #NM 199420.4) was chemically synthesized. The DNA sequence encoding the polymerase domain (amino acids 1792-2590) was subcloned into an E. coli expression plasmid, resulting in the fusion of 10×Histidine-SUMO tag at the N terminus of the polymerase domain.
The protein was expressed in E. coli. and purified using a 2-step IMAC (immobilized metal chelate affinity chromatography) procedure. Briefly stated, the overexpressed E. coli lysate was subjected to Ni-NTA purification, and an N-terminal tag was digested by a SUMO protease. Then, the excised fragment of 10×Histidine-SUMO tag was removed using Ni-NTA beads. The resulting protein was used for the Picogreen assay, as described below.
The methods of DNA complex preparation were slightly modified from the protocol previously reported (Zatreanu et al., 2021, Nature Communications, 12:3636). Briefly stated, polθ substrate was prepared by mixing Oligo1 (5′-GCG GCT GTC ATA AG-3′) and Oligo2 (5′-GCTACATTGACAATGGCATCAAATCTCAGATTGCGTCTTATGACAGCCGCG-3′) in an annealing buffer (20 mM Tris-Cl, pH 7.5, 50 mM NaCl) to the final concentration of 22 uM and 20 uM, respectively. The Polθ product was prepared by mixing Oligo3 (5′-CGCGGCTGTCATAAGACGCAATCTGAGATTTGATGCCATTGTCAATGTAGC-3′) and Oligo2 (5′-GCTACATTGACAATGGCATCAAATCTCAGATTGCGTCTTATGACAGCCGCG-3′) to the final concentration of 20 uM. The polθ product was used for the top signal control in the Picogreen assay. Both substrate and product were heated to 95° C. […] and cooled slowly to room temperature.
To evaluate the ability of test compounds to inhibit the activity of polθ in vitro, a Picogreen assay was performed to measure polθ IC50 (nM).
The reactions were performed at room temperature in an assay buffer (25 mM Tris-HCl, pH 7.5, 12.5 mM NaCl, 0.5 mM MgCl2, 5% (v/v) glycerol, 0.01% (v/v) Triton X-100, 0.01% (w/v) Bovine serum albumin, 1 mM DTT). Thirty microliters of 2×polymerase mixture (8 nM Polθ enzyme in an assay buffer) were distributed to 96 well plates, test compounds were prepared by dilution in 100% DMSO to obtain the correct dose range for a 12-point concentration response and 1 μl was dispensed into each well, and then 30 microliters of 2×substrate mix (100 nM DNA and 40 uM dNTPs in an assay buffer) was added. After 90 minutes of incubation, the reaction was stopped and DNA was stained by adding 40 microliters of Picogreen solution (1:80 dilution of Picogreen, Invitrogen, Cat #P7581, 25 mM Tris-HCl, pH 7.5, 10 mM EDTA, pH 7.5).
The fluorescence intensity was measured at excitation/emission=485 nm/520 nm using an Ensight plate reader (Perkin Elmer). The data was analyzed by GraphPad Prism software (Version 8.4.3) to calculate IC50.

| IC50 [nM] | Structure (SMILES) |
| --- | --- |
| 1 to 50 | Cc1cc(C(F)(F)F)cc(N2[C@H](C(=O)N(CC#Cc3nccc(N4CCOCC4)n3)c3ccc(F)c(C)c3)CCS2(=O)=O)n1 [compound 80] |
| 1 to 50 | CCN1CCN(CC#CCN(C(=O)[C@@H]2CCC(=O)N2c2cc(C(F)(F)F)cc(C)n2)c2ccc(F)c(C)c2F)CC1 [compound 13] |
| 1 to 50 | Cc1cc(C(F)(F)F)cc(N2C(=O)CC[C@H]2C(=O)N(CC#Cc2ccc(N)nn2)c2ccc(F)c(Cl)c2F)n1 [compound 4] |
| 51 to 100 | Cc1cc(C(F)(F)F)cc(N2[C@H](C(=O)N(CC#Cc3cccc(OC(F)F)n3)c3ccc(F)c(C)c3)CCS2(=O)=O)n1 [compound 89] |
| > 101 | Cc1cc(C(F)(F)F)cc(N2[C@@H](C(=O)N(CC#Cc3ccc(C(N)=O)nc3)Cc3ccc(F)c(C)c3)CCS2(=O)=O)n1 [compound 114] |
| 1 to 50 | Cc1cc(C(F)(F)F)cc(N2[C@H](C(=O)N(CC#Cc3cnc(N4C[C@H](C)N[C@@H](C)C4)cn3)c3ccc(F)c(C)c3)CCS2(=O)=O)n1 [compound 52] |
| 1 to 50 | CC(=O)Nc1cnc(C#CCN(C(=O)[C@@H]2CCS(=O)(=O)N2c2cc(C(F)(F)F)cc(C)n2)c2ccc(F)c(C)c2)cn1 [compound 34] |
| > 101 | Cc1cc(C(F)(F)F)cc(N2[C@@H](C(=O)N(CC#Cc3cnc(N)cn3)c3ccc(F)c(C)c3F)CCS2(=O)=O)n1 [compound 31] |
| > 101 | Cc1ccc(F)c(N(CC#Cc2cnc(N3CCOCC3)cn2)C(=O)[C@H]2CCS(=O)(=O)N2c2cc(C(F)(F)F)cc(C)n2)c1 [compound 41] |
| 1 to 50 | C=CC(=O)Nc1ccc(C#CCN(C(=O)[C@@H]2CCS(=O)(=O)N2c2cc(C(F)(F)F)cc(C)n2)c2ccc(F)c(C)c2)cn1 [compound 141, (S)-N-(3-(6-acrylamidopyridin-3-yl)prop-2-yn-1-yl)-N-(4-fluoro-3-methylphenyl)-2-(6-methyl-4-(trifluoromethyl)pyridin-2-yl)isothiazolidine-3-carboxamide 1,1-dioxide] |
| > 101 | Cc1cc(C(F)(F)F)cc(N2[C@H](C(=O)N(CC#Cc3ccc(C(N)=O)nc3)C(C)(C)c3ccc(F)c(C)c3)CCS2(=O)=O)n1 [compound 112] |
| 51 to 100 | Cc1cc(C(F)(F)F)cc(N2[C@H](C(=O)N(CC#Cc3cncc(S(N)(=O)=O)n3)c3ccc(F)c(C)c3)CCS2(=O)=O)n1 [compound 66] |
| 1 to 50 | Cc1cc(C(F)(F)F)cc(N2[C@H](C(=O)N(CC#Cc3ccc(N4CCOCC4)nn3)c3ccc(F)c(C)c3)CCS2(=O)=O)n1 [compound 23] |
| 1 to 50 | Cc1cc(C(F)(F)F)cc(N2C(=O)CC[C@H]2C(=O)N(CC#Cc2cccc(=O)[nH]2)c2ccc(F)c(C)c2)n1 [compound 7] |
| 1 to 50 | C=CC(=O)Nc1ccc(C#CCN(C(=O)[C@@H]2CCS(=O)(=O)N2c2cc(C(F)(F)F)cc(C)n2)c2ccc(F)c(C)c2)nc1 [compound 140, (S)-N-(3-(5-acrylamidopyridin-2-yl)prop-2-yn-1-yl)-N-(4-fluoro-3-methylphenyl)-2-(6-methyl-4-(trifluoromethyl)pyridin-2-yl)isothiazolidine-3-carboxamide 1,1-dioxide] |
| 1 to 50 | Cc1cc(C(F)(F)F)cc(N2[C@H](C(=O)N(CC#Cc3ccc(C(N)=O)cn3)c3ccc(F)c(C)c3)CCS2(=O)=O)n1 [compound 97] |
| 1 to 50 | Cc1cccc(N(CC#Cc2ccc(N)nn2)C(=O)[C@@H]2CN(C)S(=O)(=O)N2c2cc(C(F)(F)F)cc(C)n2)c1 [compound 107] |
| 1 to 50 | Cc1cc(C(F)(F)F)cc(N2[C@H](C(=O)N(CC#Cc3ncc(C(N)=O)nc3C)c3ccc(F)c(C)c3)CCS2(=O)=O)n1 [compound 118] |

| IC50 [nM] | Structure (SMILES) |
| --- | --- |
| > 101 | Cc1cc(C(F)(F)F)cc(N2[C@H](C(=O)N(CC#Cc3cccc(OC(C)C)n3)c3ccc(F)c(C)c3)CCS2(=O)=O)n1 [compound 88] |
| 1 to 50 | Cc1cc(C(F)(F)F)cc(N2[C@H](C(=O)N(CC#Cc3cnc(C(N)=O)c(F)c3)c3ccc(F)c(C)c3)CCS2(=O)=O)n1 [compound 96] |
| 1 to 50 | Cc1ccc(F)c(N(CC#Cc2cnc(N3CCOCC3)cn2)C(=O)[C@@H]2CCS(=O)(=O)N2c2cc(C(F)(F)F)cc(C)n2)c1 [compound 40] |
| 1 to 50 | Cc1cc(N(CC#Cc2cnc(N3CCOCC3)cn2)C(=O)[C@@H]2CCS(=O)(=O)N2c2cc(C(F)(F)F)cc(C(F)(F)F)n2)ccc1F [compound 125] |
| 51 to 100 | C=CC(=O)Nc1cnccc1C#CCN(C(=O)[C@@H]1CCS(=O)(=O)N1c1cc(C(F)(F)F)cc(C)n1)c1ccc(F)c(C)c1 [compound 144, (S)-N-(3-(3-acrylamidopyridin-4-yl)prop-2-yn-1-yl)-N-(4-fluoro-3-methylphenyl)-2-(6-methyl-4-(trifluoromethyl)pyridin-2-yl)isothiazolidine-3-carboxamide 1,1-dioxide] |
| 1 to 50 | COc1ccc(C#CCN(C(=O)[C@@H]2CCS(=O)(=O)N2c2cc(C(F)(F)F)cc(C)n2)c2ccc(F)c(C)c2)nn1 [compound 27] |
| 1 to 50 | Cc1cc(C(F)(F)F)cc(N2[C@H](C(=O)N(CC#Cc3cnc(C(=O)N(C)C)cn3)c3ccc(F)c(C)c3)CCS2(=O)=O)n1 [compound 68] |
| 1 to 50 | Cc1cc(C(F)(F)F)cc(N2[C@H](C(=O)N(CC#Cc3cc(N4CCOCC4)ncn3)c3ccc(F)c(C)c3)CCS2(=O)=O)n1 [compound 75] |
| 1 to 50 | Cc1cc(C(F)(F)F)cc(N2[C@H](C(=O)N(CC#Cc3ccc(=O)[nH]n3)c3ccc(F)c(C)c3)CCS2(=O)=O)n1 [compound 26] |
| 1 to 50 | Cc1cc(C(F)(F)F)cc(N2[C@H](C(=O)N(CC#Cc3ccc(N)nn3)c3ccc(F)c(C)c3)CCS2(=O)=O)n1 [compound 18] |
| 51 to 100 | Cc1cccc(N(CC#Cc2cnc(N)cn2)C(=O)[C@@H]2CN(C)S(=O)(=O)N2c2cc(C(F)(F)F)cc(C)n2)c1 [compound 108] |
| 1 to 50 | Cc1cc(C(F)(F)F)cc(N2C(=O)CC[C@H]2C(=O)N(CC#Cc2cncn2C)c2ccc(F)c(C)c2)n1 [compound 9] |
| 1 to 50 | Cc1cc(C(F)(F)F)cc(N2[C@H](C(=O)N(CC#Cc3cnc(N)cn3)c3ccc(F)c(C)c3)CCS2(=O)=O)n1 [compound 30] |
| 1 to 50 | Cc1cc(C(F)(F)F)cc(N2[C@H](C(=O)N(CC#Cc3ccc(F)cn3)c3ccc(F)c(C)c3)CCS2(=O)=O)n1 [compound 93] |
| > 101 | Cc1cc(C(F)(F)F)cc(N2C(=O)CC[C@H]2C(=O)N(CC#Cc2ccc(C(N)=O)nc2)c2ccc(F)c(C)c2)n1 [compound 12] |
| 1 to 50 | Cc1cc(C(F)(F)F)cc(N2C(=O)CC[C@H]2C(=O)N(CC#CCN2CCN(c3ncccn3)CC2)c2ccc(F)c(C)c2F)n1 [compound 16] |
| 1 to 50 | Cc1cc(C(F)(F)F)cc(N2[C@H](C(=O)N(CC#Cc3cccc(N4CCOCC4)n3)c3ccc(F)c(C)c3)CCS2(=O)=O)n1 [compound 86] |
